These results are taken from US20230075856A1, “CYCLIC SULFAMIDE COMPOUNDS FOR TREATMENT OF HBV” (Assembly Biosciences, Inc., priority 2018, published 2023).

For the first assay, the system named is HBV viral load production from HepAD38 cells. The assay is described as follows: Viral production from HepAD38 cells: viral load in supernatant by qPCR of the HBV core sequence. Format: cell-based. The settings on record: 5 days incubation, qPCR of supernatant HBV DNA vs DMSO control, read-out: viral load lowering EC50 (Activity). In short, it runs like this:
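HepAD38 cells seeded at 50,000/well in tetracycline-free medium with 2% FBS, treated with compounds (final top concentration 10 μM) for 5 days at 37 °C. Supernatant HBV DNA quantified by TaqMan qPCR of core sequence against HBV DNA standards, relative to DMSO controls; EC50 by four-parameter logistic fit.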
Background: Quantitative PCR measures a nucleic acid by following its amplification.
For orientation: EC50 means the concentration that produces a half-maximal response. Regarding `CN1C(C(=O)Nc2ccc(F)c(Cl)c2)CC(C(=O)NCc2ccccc2-n2ccnc2)NS1(=O)=O` (single isomer, unassigned; isomer-a) [Compound 910-ISOMER-A, N3-(3-chloro-4-fluoro-phenyl)-N5-[(2-imidaozl-1-ylphenyl)methyl]-2-methyl-1,1-dioxo-1,2,6-thiadiazinane-3,5-dicarboxamide], the EC50 is less than 50 nM.
The same measure, in the same setting: the figure for `CCc1nc(CNC(=O)C2CC(C(=O)Nc3ccc(F)c(Cl)c3)N(C)S(=O)(=O)N2)cs1` (single isomer, unassigned) [Compound 742-ISOMER-B, N3-(3-chloro-4-fluoro-phenyl)-N5-[(2-ethylthiazol-4-yl)methyl]-2-methyl-1,1-dioxo-1,2,6-thiadiazinane-3,5-dicarboxamide] is less than 50 nM; for `CN1C(C(=O)Nc2ccc(F)c(Cl)c2)CC(C(=O)NCc2ncc(-c3ccc(F)cc3)s2)NS1(=O)=O` (single isomer, unassigned) [1153-ISOMER-B, N3-(3-chloro-4-fluoro-phenyl)-N5-[[5-(4-fluorophenyl)thiazol-2-yl]methyl]-2-methyl-1,1-dioxo-1,2,6-thiadiazinane-3,5-dicarboxamide] it is 100 to 10000 nM.
`CN1C(C(=O)Nc2ccc(F)c(Cl)c2)CC(C(=O)NC2CCN(C(=O)OC(C)(C)C)CC2)NS1(=O)=O` (single isomer, unassigned) [Compound 767-ISOMER-B, tert-butyl 4-[[5-[(3-chloro-4-fluoro-phenyl)carbamoyl]-6-methyl-1,1-dioxo-1,2,6-thiadiazinane-3-carbonyl]amino]piperidine-1-carboxylate]: the EC50 lay within 100 to 10000 nM.
In the case of `COc1ccc2nc(CNC(=O)C3CC(C(=O)Nc4ccc(F)c(Cl)c4)N(C)S(=O)(=O)N3)sc2c1` (single isomer, unassigned) [1011-ISOMER-A, N3-(3-Chloro-4-fluoro-phenyl)-N5-[(6-methoxy-1,3-benzothiazol-2-yl)methyl]-2-methyl-1,1-dioxo-1,2,6-thiadiazinane-3,5-dicarboxamide], the EC50 was 100 to 10000 nM.
`Cc1cnc(CNC(=O)C2CC(C(=O)Nc3ccc(F)c(Cl)c3)N(C)S(=O)(=O)N2)s1` (single isomer, unassigned) [Compound 687-ISOMER-B, N3-(3-chloro-4-fluoro-phenyl)-2-methyl-N5-[(5-methylthiazol-2-yl)methyl]-1,1-dioxo-1,2,6-thiadiazinane-3,5-dicarboxamide]: the EC50 is less than 50 nM.
On to “N3-(3-chloro-4-fluoro-phenyl)-2-methyl-1,1-(trifluoromethyl)phenyl]ethyl]-1,2,6-thiadiazinane-3,5-dicarboxamide [493-S-ISOMER-B]”, for which the EC50 fell in the range of 100 to 10000 nM.
Still for that read-out and setting: the figure for `COC(=O)N1CCC(NC(=O)C2CC(C(=O)Nc3ccc(F)c(Cl)c3)N(CC(F)(F)F)S(=O)(=O)N2)CC1` (single isomer, unassigned; isomer-a) [Compound 893-ISOMER-A, methyl 4-[[5-[(3-chloro-4-fluroo-phenyl)carbamoyl]-1,1-dioxo-6-(2,2,2-triflurooethyl)-1,2,6-thiadiazinane-3-carbonyl]amino]piperidine-1-carboxylate] is less than 50 nM; for `Cc1nc(-c2ccc(F)cc2)sc1CNC(=O)C1CC(C(=O)Nc2ccc(F)c(Cl)c2)N(C)S(=O)(=O)N1` (single isomer, unassigned) [1056-ISOMER-B, N3-(3-chloro-4-fluoro-phenyl)-N5-[[2-(4-fluorophenyl)-4-methyl-thiazol-5-yl]methyl]-2-methyl-1,1-dioxo-1,2,6-thiadiazinane-3,5-dicarboxamide] it is less than 50 nM.

Still in this assay, the particulars now being: Hepatitis B virus, HePAD38, 120 h, 5 days incubation, qPCR of supernatant HBV DNA vs DMSO control, read-out: viral load lowering EC50 (Activity).
For the molecule `Cc1nc(-c2ccccn2)sc1CNC(=O)C1CC(C(=O)Nc2ccc(F)c(Cl)c2)N(C)S(=O)(=O)N1` (stereo not shown) [Compound 1065], the EC50 was less than 50 nM.
For the molecule `CN1C(C(=O)Nc2ccc(F)c(Cl)c2)CC(C(=O)NCc2ncc(-c3ccccc3)s2)NS1(=O)=O` (single isomer, unassigned) [Compound 931-ISOMER-A, N3-(3-chloro-4-fluoro-phenyl)-2-methyl-1,1-dioxo-N5-[(5-phenylthiazol-2-yl)methyl]-1,2,6-thiadiazinane-3,5-dicarboxamide], the EC50 fell in the range of 100 to 10000 nM.
On the same count and under the same terms, to `CN1C(C(=O)Nc2ccc(F)c(Cl)c2)CC(C(=O)N[C@H](c2ccccc2)c2cnc(Cl)s2)NS1(=O)=O` (single isomer, unassigned) [1066-ISOMER-C] belongs less than 50 nM.
For `CN1C(C(=O)Nc2ccc(F)c(Cl)c2)CC(C(=O)Nc2cccc3cnccc23)NS1(=O)=O` (stereo not shown) [Compound 485], the EC50 is less than 50 nM.
Still for that read-out and setting: the figure for `CN1C(C(=O)Nc2ccc(F)c(Cl)c2)CC(C(=O)NCc2ccc(Cl)cc2)NS1(=O)=O` (stereo not shown) [Compound 729] is less than 50 nM.
Same read-out and setting: to `Cc1cnc(CNC(=O)C2CC(C(=O)Nc3ccc(F)c(Cl)c3)N(C)S(=O)(=O)N2)s1` (stereo not shown) [Compound 687] belongs less than 50 nM; to `COC(=O)N1CCC(NC(=O)C2CC(C(=O)Nc3ccc(F)c(Cl)c3)N(CC(F)(F)F)S(=O)(=O)N2)CC1` (stereo not shown) [Compound 893], less than 50 nM; to `CN1C(C(=O)Nc2ccc(F)c(Cl)c2)CC(C(=O)NCc2cnc(-c3cscn3)s2)NS1(=O)=O` (single isomer, unassigned) [Compound 929-ISOMER-B, N3-(3-chloro-4-fluoro-phenyl)-2-methyl-1,1-dioxo-N5-[(2-thiazol-4-ylthiazol-5-yl)methyl]-1,2,6-thiadiazinane-3,5-dicarboxamide], less than 50 nM.
Same read-out and setting: the figure for `CN1C(C(=O)Nc2ccc(F)c(Cl)c2)CC(C(=O)NCc2ccccc2-n2ccnc2)NS1(=O)=O` (stereo not shown) [Compound 910] is 50 to 100 nM.
For the molecule `CN1C(C(=O)Nc2ccc(F)c(Cl)c2)CC(C(=O)N[C@@H]2CCN(c3ccnc(Cl)c3)C2)NS1(=O)=O` (stereo partly shown) [Compound 1055-R], the EC50 was less than 50 nM.
The same measure, in the same setting: to `CN1C(C(=O)Nc2ccc(F)c(Cl)c2)CC(C(=O)NCc2cc(-c3ccccc3)on2)NS1(=O)=O` (stereo not shown) [Compound 1149] belongs less than 50 nM; to `CN1C(C(=O)Nc2ccc(F)c(Cl)c2)CC(C(=O)NCc2sc(-c3ccccc3F)nc2C(F)(F)F)NS1(=O)=O` (stereo not shown) [Compound 1082], less than 50 nM.
Still for that read-out and setting: the figure for `Cc1nc(-c2ccccc2)sc1CNC(=O)C1CC(C(=O)Nc2ccc(F)c(C#N)c2)N(C)S(=O)(=O)N1` (single isomer, unassigned) [1136-ISOMER-A, N3-(3-cyano-4-fluoro-phenyl)-2-methyl-N5-[(4-methyl-2-phenyl-thiazol-5-yl)methyl]-1,1-dioxo-1,2,6-thiadiazinane-3,5-dicarboxamide] is less than 50 nM.
As to `CN1C(C(=O)Nc2ccc(F)c(Cl)c2)CC(C(=O)NCc2cnc(C3=CCC(C)(C)C3)s2)NS1(=O)=O` (stereo not shown) [Compound 1205], the EC50 fell in the range of 100 to 10000 nM.
Same read-out and setting: to `Cc1cc(CNC(=O)C2CC(C(=O)Nc3ccc(F)c(C#N)c3)N(C)S(=O)(=O)N2)n(C)n1` (stereo not shown) [Compound 773] belongs 100 to 10000 nM; to `C[C@@H](NC(=O)C1CC(C(=O)Nc2ccc(F)c(Cl)c2)N(C)S(=O)(=O)N1)c1ccc(C(F)(F)F)cc1` (single isomer, unassigned) [493-R-ISOMER-B], 100 to 10000 nM; to `CC(NC(=O)C1CC(C(=O)Nc2ccc(F)c(Cl)c2)N(C)S(=O)(=O)N1)c1cnc(-c2ccccc2Cl)s1` (stereo not shown) [Compound 1019], less than 50 nM.
Still for that read-out and setting: to `CN1C(C(=O)Nc2ccc(F)c(Cl)c2)CC(C(=O)NCc2cn(-c3ccccc3)cn2)NS1(=O)=O` (stereo not shown) [Compound 1145] belongs less than 50 nM; to `CN1C(C(=O)Nc2ccc(F)c(Cl)c2)CC(C(=O)N[C@@H](c2ccccc2)c2cnc(-c3ccc(Cl)cc3)s2)NS1(=O)=O` (single isomer, unassigned) [1068-ISOMER-D], 100 to 10000 nM; to `Cc1cn(-c2ccccc2)nc1CNC(=O)C1CC(C(=O)Nc2ccc(F)c(Cl)c2)N(C)S(=O)(=O)N1` (stereo not shown) [Compound 1057], less than 50 nM.
On the same count and under the same terms, to `Cc1nc(-c2ccccc2F)sc1[C@@H](NC(=O)C1CC(C(=O)Nc2ccc(F)c(Cl)c2)N(C)S(=O)(=O)N1)c1ccccc1` (single isomer, unassigned) [1101-ISOMER-B] belongs 100 to 10000 nM; to `CN1C(C(=O)Nc2ccc(F)c(Cl)c2)CC(C(=O)NCc2cnc(-c3cccnc3)s2)NS1(=O)=O` (stereo not shown) [Compound 911], 50 to 100 nM.
Take `CN1C(C(=O)Nc2ccc(F)c(Cl)c2)CC(C(=O)NCc2nc3ccc(O)cc3s2)NS1(=O)=O` (stereo not shown) [Compound 1010]: the EC50 was less than 50 nM.
On the same count and under the same terms, the figure for `CN1C(C(=O)Nc2ccc(F)c(Cl)c2)CC(C(=O)NC2CCN(c3ccnc(-c4ccccc4)c3)CC2)NS1(=O)=O` (single isomer, unassigned) [1050-ISOMER-A, N3-(3-chloro-4-fluoro-phenyl)-2-methyl-1,1-dioxo-N5-[1-(2-phenyl-4-pyridyl)-4-piperidyl]-1,2,6-thiadiazinane-3,5-dicarboxamide] is 100 to 10000 nM.
`CN1C(C(=O)Nc2ccc(F)c(Cl)c2)CC(C(=O)NCc2nc3ccccc3s2)NS1(=O)=O` (stereo not shown) [Compound 689]: the EC50 is less than 50 nM.
Same read-out and setting: the figure for `Cc1nc(CNC(=O)C2CC(C(=O)Nc3ccc(F)c(Cl)c3)N(C)S(=O)(=O)N2)sc1-c1ccccc1` (stereo not shown) [Compound 1070] is less than 50 nM.
On the same count and under the same terms, to `CN1C(C(=O)Nc2ccc(F)c(Cl)c2)CC(C(=O)NCc2cnc(-c3ccccc3)s2)NS1(=O)=O` (stereo not shown) [Compound 691] belongs less than 50 nM; to `CN1C(C(=O)Nc2ccc(F)c(Cl)c2)CC(C(=O)NCc2cnc(-c3ccc(SCCCO)cc3)s2)NS1(=O)=O` (stereo not shown) [Compound 923], 50 to 100 nM; to `COc1ccc(CNC(=O)C2CC(C(=O)Nc3ccc(F)c(C#N)c3)N(C)S(=O)(=O)N2)cc1` (stereo not shown) [Compound 832], 50 to 100 nM.
With `C[C@@H](NC(=O)C1CC(C(=O)Nc2ccc(F)c(Cl)c2)N(C)S(=O)(=O)N1)c1ccc(F)cc1` (single isomer, unassigned) [Compound 493-R], the EC50 is less than 50 nM.
Consider `CN1C(C(=O)Nc2ccc(F)c(Cl)c2)CC(C(=O)NCc2cc(-c3ccc(F)cc3)nn2C)NS1(=O)=O` (stereo not shown) [Compound 1143], for which the EC50 was less than 50 nM.
